Experimental findings from US20080085889A1, “Amidomethyl-Substituted 1-(Carboxyalkyl) Cyclopentyl-Carbonylamino-Benzazepine-N-Acetic Acid Compounds, Process and Intermediate Products for Their Preparation and Pharmaceutical Compositions Containing Them” (SOLVAY PHARMACEUTICALS GmbH, priority 2003, published 2008) are described below.

In data set [1] the test system is formation of ET-1 from Big-ET-1. The data set can be described thus: In vivo inhibition of the Big-ET-1-induced blood pressure increase in anaesthetised rats, i.v. single dose. Also noted: species or system Rats (Sprague-Dawley). As to conditions: Rattus norvegicus, iv, 5 min before 0.5 nmol/kg Big-ET-1, negative values indicate inhibition, read-out: % substance-related inhibition of the maximum Big-ET effect on SAP vs. control; for change in vivo at 10 µmol/kg: 10 μmol/kg; for change in vivo at 3 µmol/kg: 3 μmol/kg. The text has this: 3. In Vivo Investigation of the Inhibitory Action of the Substances on the Formation of ET-1 from Big-ET-1 in Rats
ET-1 is an endogenous substance with strong vasoconstrictive effect. An increase in the ET-1 level results in an increase in blood pressure. Upon infusion of Big-ET-1, an increase in blood pressure takes place to the extent that ET-1 is produced therefrom by enzyme-catalysed cleavage of Big-ET-1. As a measurement of the enzyme-inhibiting action of the substances, their inhibitory action on the increase in blood pressure induced by infusion of Big-ET-1 was determined.
Rats (Sprague-Dawley, CRLD=Charles River) were anaesthetised with 1 ml/kg Rompun/Ketavet 1:1. A pressure transducer (Statham) was inserted into the carotid artery to measure blood pressure. One jugular vein was cannulated for administering the substance, and the other for administering Big-ET-1. After a 20-minute equilibration phase, the rats were administered the corresponding test substance of Formula I at a dose of as a rule 10 μmol/kg (if not stated otherwise), or a vehicle. Five minutes later, 0.5 nmol/kg Big-ET-1 was infused over a period of one minute. The systolic (SAP=systolic arterial pressure) and the diastolic (DAP=diastolic arterial pressure) blood pressure and the heart rate were each measured before administration of the substance, then immediately before administration of Big-ET and in each case every five minutes over a period of 30 minutes after Big-ET administration using the pressure transducer in known manner. The maximum Big-ET-induced increase in blood pressure and the maximum lowering of heart rate were calculated from the measured values as the difference between the value measured at the moment of maximum development of the Big-ET action (typically after 5 min.) and the value measured before Big-ET infusion. Furthermore, the integral of the blood pressure curve under the influence of Big-ET-1 was determined over 30 minutes (AUC=area under the curve).
The percentage inhibition of the maximum Big-ET-1 effect on the systolic arterial blood pressure (SAP) after i.v. administration of the test substances compared with administration of a vehicle is set forth in the following Table 3a:
Data given in table 3a as negative values indicate an inhibitory effect.

The subject of data set [2] is maximal SAP response to Big-ET. The data set can be described thus: In vivo i.v. potency (ID50) to inhibit maximal SAP response to Big-ET in anesthetized rats. Conditions: Rattus norvegicus, iv, dose at which the pressor effect of Big-ET was suppressed by 50%. Set-up: species or system Rats (Sprague-Dawley). As for the experimental part:
Rats (Sprague-Dawley, CRLD=Charles River) were anaesthetised with 1 ml/kg Rompun/Ketavet 1:1. A pressure transducer (Statham) was inserted into the carotid artery to measure blood pressure.
For intravenous testing, one jugular vein was cannulated for administering the substance, and the other for administering Big-ET-1. […] Five minutes later, 0.5 nmol/kg Big-ET-1 was infused over a period of one minute. SAP, DAP, and heart rate were measured before administration of the substance, then before administration of Big-ET, and subsequently every five minutes after Big-ET administration over a period of 30 minutes using the pressure transducer in known manner. The maximum Big-ET-induced increase in blood pressure was calculated from the measured values as the difference between the value measured at the moment of maximum development of the Big-ET action (typically after 5 min) and the value measured before Big-ET infusion. The dose at which the pressor effect of Big-ET was suppressed by 50% (ID50) was estimated from the inhibitory effects observed over the range of dosages tested (n>5 rats for each dose).
The intravenous potency of the test compounds of Formula I (given as ID50 values) to inhibit the maximal SAP response to Big ET in anesthetized rats is set forth in the following Table 3b: […]

Data set [3] has as its target T1, soluble, human recombinant NEP (Homo sapiens, UniProt P08473).
T1 construct: soluble, human recombinant NEP; purchased Prof; Crine, University of Montreal, Canada
Nature of the data set: In-vitro investigation of the NEP inhibitory action (fluorescence-quenched Big-ET-1 analogue, HPLC). It counts as biochemical. As for the experimental part:
1. In-Vitro Investigation of the NEP Inhibitory Action of the Substances
In this test, the measure of the inhibitory activity of the substances which was determined was their IC50 value. The IC50 value of a test substance having enzyme-inhibitory activity is that concentration of the test substance at which 50% of the enzymatic activity of the NEP is blocked.
70 μl test buffer, 10 μl enzyme working solution and 10 μl test substance solution were mixed in an Eppendorf vessel and preincubated at 37° C. for 15 minutes (=min.). Then 10 μl substrate stock solution was added and the test batch was incubated for 60 minutes at 37° C. The enzymatic reaction was then ended by 5-minutes' heating to 95° C. After centrifugation (Heraeus Biofuge B, 3 min.), the liquid supernatant was investigated by HPLC in accordance with the following specifications.
The substrate was separated from cleavage products by means of reversed-phase HPLC (CC 125/4 Nucleosil 300/5 C18 RP column with CC 8/4 Nucleosil 100/5 C18 precolumn, from Macherey-Nagel, Düren, Germany). For this, 60 μl of the test mixture was injected into the HPLC sample injection point and the column was then eluted at a flow rate of 1 ml/min with the following gradient:
Mobile Phase B: 100% acetonitrile+0.5M H3PO4
All the peptides were detected by absorption at 214 nm and by fluorescence with an excitation wavelength of 328 nm and an emission wavelength of 393 nm.
Upon enzymatic cleavage of the peptide, the fluorophore (=Mca) and the quencher end up in different peptide fragments, which reduces the effectiveness of the quench. […] The increasing fluorescence signal (corresponds to the area, A) of the HPLC peak of the peptide with the non-quenched Mca fluorophore is used for the further calculations. This signal was compared for samples with (=Ainhib) and without (=Acontrol) test substance of Formula I, and the value “% inhibition” was calculated on the basis of the respective peak areas according to the following formula: % inhibition=100*(1−Ainhib/Acontrol)
All the samples were measured in duplicates and average values were calculated therefrom. A standard inhibitor (10 nM thiorphan) and a solvent control (0.1% DMSO) were likewise measured as quality controls on each run. In this test model the test substances of Formula I listed in the following Table 1 had the IC50 values given below: […]

Data set [4] is described as follows: Plasma protein binding, equilibrium dialysis, rat plasma. It counts as in vitro ADME. As to conditions: rat plasma (10% for routine testing), 37° C., pH 7.4, 10% plasma (100% for low binders), read-out: % bound (rat plasma) (converted). As for the experimental part: (§1) Plasma protein binding of the test substances of Formula I was measured using a validated equilibrium dialysis method. The dialysis cells consisted of two halves separated by a semi-permeable membrane slightly tensioned in between. […] Before being used, the membranes were re-hydrated by soaking in water followed by the dialysis buffer. Plasma (10% for routine testing, and 100% for compounds found to have a low protein binding) was heated to 37° C. and adjusted to pH 7.4 before use. 5 μM test compound solutions (final dimethylsulfoxide concentration 0.5%) were prepared in isotonic phosphate buffer containing rat or human plasma. The plasma-containing solution was on one side of the membrane, and the plasma-free on the other. Incubations were performed overnight (10% plasma assay), or for 2 hours (100% plasma assay) in triplicate. The cells were mounted in a drive unit that rotated the cells and ensured a uniform equilibrium was obtained. The equilibrium was temperature controlled by the drive unit being immersed in a water bath at 37° C. At the end of the equilibration time, the cells were emptied. The solutions for each batch of compounds were combined into two groups (plasma-free and plasma-containing) then cassette analysed by LC-MS/MS using two sets of calibration standards for plasma-free (7 points) and plasma-containing solutions (6 points). The percentage of protein bound compound was calculated as follows: [formula] PC=sample concentration in protein containing side; PF=sample concentration in protein free side;
(In equilibrium dialysis only unbound substance equilibrates across the membrane.)

Data set [5] is described as follows: Plasma protein binding, equilibrium dialysis, human plasma. Conditions: human plasma (10% for routine testing), 37° C., pH 7.4, 10% plasma (100% for low binders), read-out: % bound (human plasma) (converted). It counts as in vitro ADME. As for the experimental part:
as §1

Data set [6] concerns the target T2, His6-tagged hSEP ectodomain (Homo sapiens, UniProt Q495T6).
T2 construct: His6-tagged hSEP ectodomain; His6; purchased Innogenetics, Ghent, Belgium
T2 sequence (Q495T6 49-779 limits assumed): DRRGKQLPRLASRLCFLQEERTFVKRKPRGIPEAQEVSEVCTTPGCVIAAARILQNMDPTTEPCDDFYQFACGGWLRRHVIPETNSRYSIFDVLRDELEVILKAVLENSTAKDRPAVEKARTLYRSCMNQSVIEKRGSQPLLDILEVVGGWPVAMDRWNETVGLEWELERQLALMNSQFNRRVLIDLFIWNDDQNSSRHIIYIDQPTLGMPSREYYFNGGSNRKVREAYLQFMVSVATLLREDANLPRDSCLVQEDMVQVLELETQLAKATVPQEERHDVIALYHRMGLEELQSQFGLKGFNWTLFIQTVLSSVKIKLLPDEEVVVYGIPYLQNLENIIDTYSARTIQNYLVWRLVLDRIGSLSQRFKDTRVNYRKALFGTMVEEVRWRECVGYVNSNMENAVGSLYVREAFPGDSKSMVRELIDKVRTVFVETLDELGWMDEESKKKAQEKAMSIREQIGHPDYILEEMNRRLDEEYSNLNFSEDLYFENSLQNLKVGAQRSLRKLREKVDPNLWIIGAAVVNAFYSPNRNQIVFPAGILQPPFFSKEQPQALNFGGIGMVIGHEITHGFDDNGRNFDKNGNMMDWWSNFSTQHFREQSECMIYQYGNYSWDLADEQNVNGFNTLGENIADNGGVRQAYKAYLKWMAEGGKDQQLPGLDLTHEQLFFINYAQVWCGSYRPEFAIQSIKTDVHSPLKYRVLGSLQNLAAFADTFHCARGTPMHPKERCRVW
The data set can be described thus: In vitro investigation of the hSEP-inhibitory action (fluorescence-quenched Big-ET-1 analogue, HPLC). It counts as biochemical. As for the experimental part:
2. In Vitro Investigation of the hSEP-Inhibitory Action of the Substances
In this test, the measure of the inhibitory activity of the substances which was determined was their IC50 value. The IC50 value of a test substance having enzyme-inhibitory activity is that concentration of the test substance at which 50% of the enzymatic activity of the hSEP is blocked.
The test and the HPLC procedure were carried out analogously to the manner set forth above for determining the in vitro inhibitory action of the test substances on NEP. 10 nM phosphoramidon served as standard inhibitor in the HPLC procedure. In this test model the test substances of Formula I listed in the following Table 2 had the IC50 values given below: […]

T1 sequence (P08473 52-750 limits assumed): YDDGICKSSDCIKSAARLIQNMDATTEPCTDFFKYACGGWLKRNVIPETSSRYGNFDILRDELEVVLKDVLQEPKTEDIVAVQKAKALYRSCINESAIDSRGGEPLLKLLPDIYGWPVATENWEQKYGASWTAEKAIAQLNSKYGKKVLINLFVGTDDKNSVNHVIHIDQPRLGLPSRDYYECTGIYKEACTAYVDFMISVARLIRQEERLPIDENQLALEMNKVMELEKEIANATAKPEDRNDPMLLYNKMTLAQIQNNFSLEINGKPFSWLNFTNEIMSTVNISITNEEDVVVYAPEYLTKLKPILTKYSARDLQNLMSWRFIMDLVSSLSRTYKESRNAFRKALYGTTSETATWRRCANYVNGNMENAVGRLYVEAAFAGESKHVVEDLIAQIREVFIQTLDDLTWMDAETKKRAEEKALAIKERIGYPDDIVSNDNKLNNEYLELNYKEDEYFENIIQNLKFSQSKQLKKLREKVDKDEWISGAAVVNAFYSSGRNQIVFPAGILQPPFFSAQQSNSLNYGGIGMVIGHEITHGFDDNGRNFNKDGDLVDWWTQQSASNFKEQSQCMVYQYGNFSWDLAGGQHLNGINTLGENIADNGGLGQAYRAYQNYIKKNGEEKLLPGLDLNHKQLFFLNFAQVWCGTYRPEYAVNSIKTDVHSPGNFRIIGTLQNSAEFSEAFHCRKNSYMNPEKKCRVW

For the compound `CNCCN(C)C(=O)CC(CC1(C(=O)NC2CCc3ccccc3N(CC(=O)O)C2=O)CCCC1)C(=O)O` (racemic) [Example 68, 2-{[1-({[1-(carboxymethyl)-2-oxo-2,3,4,5-tetrahydro-1H-1-benzazepin-3-yl]amino}carbonyl)cyclopentyl]methyl}-4-{methyl[2-(methylamino)ethyl]amino}-4-oxobutanoic acid], in data set [1], the change in vivo at 10 µmol/kg was -108%. In data set [2], the ED50 stood at 0.7 µmol/kg.
With `CN(CCCCCN)C(=O)CC(CC1(C(=O)NC2CCc3ccccc3N(CC(=O)O)C2=O)CCCC1)C(=O)O` (racemic) [Example 78, 4-[(5-aminopentyl)(methyl)amino]-2-{[1-({[1-(carboxymethyl)-2-oxo-2,3,4,5-tetrahydro-1H-1-benzazepin-3-yl]amino}carbonyl)cyclopentyl]methyl}-4-oxobutanoic acid], the change in vivo at 3 µmol/kg in data set [1] is -82%. For the same compound, in data set [2], the ED50 was < 1 µmol/kg.
Take `CC(C)N(C)C(=O)CC(CC1(C(=O)N[C@H]2CCc3ccccc3N(CC(=O)O)C2=O)CCCC1)C(=O)O` (single isomer, unassigned) [Example 63]: in data set [3], the IC50 is 9 nM. This compound showed an ED50 in data set [2] of 0.08 µmol/kg. For the same compound, the fraction unbound at 5 μM is 0.31 in data set [4] and 0.6 in data set [5].
`CCOC(=O)C(CC(=O)NCCCO)CC1(C(=O)N[C@H]2CCc3ccccc3N(CC(=O)O)C2=O)CCCC1` (stereo in doubt) [Example 8]: the change in vivo at 10 µmol/kg in data set [1] was -113%. The same compound registered an ED50 in data set [2] of 0.2 µmol/kg.
Consider `CCN(CCCN)C(=O)CC(CC1(C(=O)NC2CCc3ccccc3N(CC(=O)O)C2=O)CCCC1)C(=O)O` (racemic) [Example 67, 4-[(3-aminopropyl)(ethyl)amino]-2-{[1-({[1-(carboxymethyl)-2-oxo-2,3,4,5-tetrahydro-1H-1-benzazepin-3-yl]amino}carbonyl)cyclopentyl]methyl}-4-oxobutanoic acid], for which the figures for the IC50 in data set [3] and in data set [6] were 15 nM and 12 nM, respectively. For the same compound, in data set [1], the change in vivo at 10 µmol/kg was -109%. Moreover, it took a dose of 0.5 µmol/kg to reach the 50% effect level in data set [2] (ED50).
As for `CN(CCCCN)C(=O)CC(CC1(C(=O)NC2CCc3ccccc3N(CC(=O)O)C2=O)CCCC1)C(=O)O` (racemic) [Example 75, 4-[(4-aminobutyl)(methyl)amino]-2-{[1-({[1-(carboxymethyl)-2-oxo-2,3,4,5-tetrahydro-1H-1-benzazepin-3-yl]amino}carbonyl)cyclopentyl]methyl}-4-oxobutanoic acid], the change in vivo at 3 µmol/kg in data set [1] was -52%. In data set [2], this compound yielded an ED50 of 0.1 µmol/kg.

One may read the ED50 as the dose at which the effect has come halfway, by size or by number of responders. Low readings indicate an effect at a small dose, high ones a need for a large dose. A word on the IC50: it is the concentration that inhibits the measured activity by half.
